Nine compounds from PubChem BioAssay (NCI) can be followed below.

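How tested: cells in 96-well plates exposed to compound for 48 hours at five concentrations. The concentration for full growth arrest is given as TGI.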 A value given as a limit tells only on which side of the number the result lay.

Some test systems named below: MOLT-4 leukemia; IGROV1 ovarian; NCI-H226 lung; SK-MEL-28 melanoma; UACC-62 melanoma; COLO 205 colon; NCI-H460 lung; RPMI-8226 leukemia; HOP-92 NSCLC; SN12C renal; OVCAR-4 ovarian; A498 renal; SNB-19 CNS; TK-10 renal; CCRF-CEM leukemia; SNB-75 CNS; SF-268 CNS; NCI/ADR-RES ovarian.
What all share (assay): NCI tumour cell line growth inhibition, 48 h

As to `CCOC(=O)C(CC(C)C)NC(=O)C(N)Cc1ccc(N(CCCl)CCCl)cc1` (stereo unspecified), the TGI was found to be 1.68 µM with MOLT-4 leukemia; 31.6 µM in the assay on IGROV1 ovarian; 29.5 µM in the assay on NCI-H226 lung; 13.7 µM in the assay on SK-MEL-28 melanoma; 9.56 µM in the assay on UACC-62 melanoma; 12.1 µM in the assay with COLO 205 colon. The TGI in the assay with NCI-H460 lung is 0.426 µM; in the assay with RPMI-8226 leukemia it was above 64.7 µM; in the assay with HOP-92 NSCLC, 11.2 µM; with SN12C renal, 19.7 µM; with OVCAR-4 ovarian, 3.1 µM; with A498 renal it was 30.9 µM. For the same compound, the TGI is 35.5 µM with SNB-19 CNS; 25.3 µM in the assay on TK-10 renal; 13 µM in the assay with CCRF-CEM leukemia; 15.9 µM in the assay on SNB-75 CNS; 16.8 µM in the assay with SF-268 CNS.

For `CCCCN(CCCC)C1(c2cc3ccccc3s2)CCCCC1`, the TGI with MOLT-4 leukemia stood at 28.8 µM; in the assay on IGROV1 ovarian it was 31.2 µM; in the assay on NCI-H226 lung it was 33.9 µM; in the assay on SK-MEL-28 melanoma, 34.1 µM; in the assay on UACC-62 melanoma, 31.1 µM; in the assay on COLO 205 colon it was 31.3 µM. Further, the TGI in the assay with NCI-H460 lung was determined as 27.9 µM; in the assay with NCI/ADR-RES ovarian it was 34 µM; in the assay with HOP-92 NSCLC it was 25.5 µM; in the assay on SN12C renal, 36.6 µM; in the assay with OVCAR-4 ovarian, 30 µM; with A498 renal, 34.1 µM. In addition, the TGI with SNB-19 CNS stood at 33.8 µM; in the assay with TK-10 renal, 31.2 µM; in the assay on CCRF-CEM leukemia, 28.7 µM; with SNB-75 CNS, 30.5 µM; with SF-268 CNS, 34 µM.

With `CCOC(=O)c1csc(NC(=O)CCN2CCOCC2)n1`, the TGI is 81.1 µM in the assay with MOLT-4 leukemia; above 100 µM in the assay with IGROV1 ovarian; above 100 µM in the assay with SK-MEL-28 melanoma; above 100 µM with UACC-62 melanoma; above 100 µM in the assay with COLO 205 colon; above 100 µM in the assay with NCI-H460 lung. The TGI in the assay on NCI/ADR-RES ovarian, in the assay on RPMI-8226 leukemia, in the assay on HOP-92 NSCLC, in the assay with OVCAR-4 ovarian, in the assay on A498 renal and in the assay on SNB-19 CNS was above 100 µM throughout. Further, the TGI in the assay with TK-10 renal and with CCRF-CEM leukemia was above 100 µM each time.

Consider `Cc1cc(C)c(S(=O)(=O)N(CCCCCCN)OCCCON(CCCCCCN)S(=O)(=O)c2c(C)cc(C)cc2C)c(C)c1`, for which the TGI in the assay with IGROV1 ovarian is 3.22 µM; in the assay with UACC-62 melanoma, 3.15 µM; in the assay on COLO 205 colon it was 3.76 µM; with NCI-H460 lung, 3.07 µM; with NCI/ADR-RES ovarian it was 34.6 µM; with HOP-92 NSCLC it was 2.96 µM. Besides, the TGI in the assay with SN12C renal is 3.89 µM; with OVCAR-4 ovarian it was 3.38 µM; in the assay on A498 renal, 3.02 µM; in the assay on SNB-19 CNS, 3.01 µM; with TK-10 renal it was 3.07 µM; with CCRF-CEM leukemia it was above 100 µM. The TGI with SNB-75 CNS was 3.17 µM; in the assay with SF-268 CNS it was 3.42 µM.

With `N=C(N)SCCSC(=N)N`, the TGI in the assay with MOLT-4 leukemia, with IGROV1 ovarian, in the assay on NCI-H226 lung, in the assay on SK-MEL-28 melanoma, in the assay with UACC-62 melanoma and in the assay on COLO 205 colon was above 100 µM each time. Besides, the TGI in the assay on NCI-H460 lung, with NCI/ADR-RES ovarian, in the assay with RPMI-8226 leukemia, with HOP-92 NSCLC, in the assay with SN12C renal and with OVCAR-4 ovarian was above 100 µM in each case. Moreover, the TGI in the assay on A498 renal, with SNB-19 CNS, in the assay with TK-10 renal, with SNB-75 CNS and with SF-268 CNS was above 100 µM in each case.

In the case of `Cc1cc2c(=O)c3ccc(Cl)cc3[nH]c2c(C(=O)O)c1C`, the TGI in the assay on MOLT-4 leukemia, in the assay with IGROV1 ovarian, in the assay with NCI-H226 lung, in the assay with SK-MEL-28 melanoma, in the assay with UACC-62 melanoma and in the assay on COLO 205 colon was above 100 µM in each case. Also, the TGI with NCI-H460 lung, in the assay on RPMI-8226 leukemia, with SN12C renal, in the assay on OVCAR-4 ovarian, in the assay with SNB-19 CNS and in the assay with TK-10 renal was above 100 µM throughout. Also, the TGI in the assay with CCRF-CEM leukemia, with SNB-75 CNS and in the assay with SF-268 CNS was above 100 µM in each case.

In the case of `COc1ccc2c(c1)C(=O)/C(=C/c1ccccc1)C2`, the TGI in the assay on MOLT-4 leukemia, in the assay on IGROV1 ovarian, with NCI-H226 lung, with SK-MEL-28 melanoma, in the assay with UACC-62 melanoma and with NCI-H460 lung was above 100 µM in each case. Further, the TGI was 88.2 µM in the assay with NCI/ADR-RES ovarian; above 100 µM in the assay on RPMI-8226 leukemia; above 100 µM in the assay on HOP-92 NSCLC; above 100 µM with SN12C renal; above 100 µM with OVCAR-4 ovarian; above 100 µM in the assay with A498 renal. Further, the TGI in the assay on SNB-19 CNS, in the assay with CCRF-CEM leukemia and in the assay with SNB-75 CNS was above 100 µM throughout.

`O=c1n(Cc2ccccc2)c2ccccc2n1CC1CS1` (stereo unspecified): the TGI in the assay on MOLT-4 leukemia, in the assay with IGROV1 ovarian, with NCI-H226 lung, in the assay on SK-MEL-28 melanoma, in the assay on UACC-62 melanoma and in the assay on COLO 205 colon was above 100 µM each time. Besides, the TGI in the assay with RPMI-8226 leukemia, with HOP-92 NSCLC, in the assay with SN12C renal, with OVCAR-4 ovarian, in the assay on SNB-19 CNS and with TK-10 renal was above 100 µM throughout. In addition, the TGI in the assay on CCRF-CEM leukemia, in the assay on SNB-75 CNS and with SF-268 CNS was above 100 µM in each case.

On to `O=C1CNC(=O)N1`, for which the TGI with MOLT-4 leukemia, in the assay on IGROV1 ovarian, with NCI-H226 lung, in the assay on SK-MEL-28 melanoma, in the assay on UACC-62 melanoma and in the assay with COLO 205 colon was above 1120 µM throughout. Also, the TGI in the assay with NCI-H460 lung is above 1120 µM; in the assay on NCI/ADR-RES ovarian it was above 1120 µM; in the assay with RPMI-8226 leukemia, above 1120 µM; in the assay with HOP-92 NSCLC, above 11.2 µM; in the assay on SN12C renal it was above 1120 µM; in the assay on OVCAR-4 ovarian, above 1120 µM. Moreover, the TGI in the assay on A498 renal is above 1120 µM; with SNB-19 CNS, above 1120 µM; in the assay on CCRF-CEM leukemia it was above 954 µM; with SNB-75 CNS, above 1120 µM; with SF-268 CNS it was above 1120 µM.
